Experiments:
Type in all cases: in vivo, mouse
[1] = SPECT/CT, whole body count and optical imaging of ^111In-MTTI-157 labeled TC1 mES cells in NU/NU mice; settings: for distribution of radioactivity (SPECT/CT): NU/NU mice
Protocol: All animal experiments were approved by the Institutional Animal Care and Use Committee of the university. Male NU/NU mice from Charles River Laboratories International, Inc. (Wilmington, Mass.), about 8 week-old, were used here, and fed a white chow (AIN-93G Purified Diet, Harlan, Madison, Wis.) and water, and housed under standard conditions. TC1 wild type mES cells were labeled with ^111In-MTTI-157 at the dye concentration of 20 μM with about 50 μCi/ml per labeling mix according to the method described before. Then about 4-5 μCi of ^111In-MTTI-157 labeled cells in 0.1 ml PBS (5×10^6 per mouse) was injected into NU/NU mice by tail vein or delivered subcutaneously on the left shoulder. The mice were followed by SPECT/CT imaging (NanoSPECT/CT, Bioscan, Inc., Washington, D.C.) with scans at 1 h and 19 h for injection subcutaneously, and at 30 min and 18 h for injection by tail vein.
The whole body radioactivity was measured through day 9 after injection by placing the mouse in a dose calibrator (Capintec).
(§1) The SPECT image parameters were 1.0 mm/pixel, 256×256 frame size and 60 sec per projection with 24 projections. Acquisition time was approximately 30 min. During imaging, the animal was anesthetized with 1-2% isoflurane in 1.5 liters/min oxygen. A CT scan was acquired prior to the SPECT scan and was performed at standard resolution, using a 45 kVp voltage and 500 milliseconds exposure time. The CT and SPECT reconstruction was performed using InVivoScope 1.43 software (Bioscan, Washington, D.C.).
Optical images (Pearl Imager, LiCor Biosciences, Lincoln, Nebr.) were acquired on day 0 and at intervals through day 28. After imaging, the lungs, liver, spleen and teratoma were removed, imaged and then imbedded in OCT in preparation for frozen section fluorescence microscopy. Slides were counter stained with the general membrane stain D275 (Invitrogen, Em: 484 nm, Ex: 501 nm). Slides were viewed in an Olympus IX 70 Inverted Light Microscope (Olympus America, Inc., NY) using filters for FITC (for D275) and Cy5 (for MTTI-157). […]

[2] = SPECT/CT, whole body count and optical imaging of ^111In-MTTI-157 labeled BL/6 mES cells in NU/NU mice
Protocol: BL/6 wild type mouse embryonic stem cells (mES) were labeled with ^111In-MTTI-157 at the concentration of 12 μM and about 250 μCi/ml according to the method described before. The labeled cells (5 in 0.1 ml PBS (5×10^6 per mouse) were injected into NU/NU mice by tail vein or subcutaneously on the left shoulder. SPECT/CT imaging was done at 30 min, 21 h and day 4 after injection subcutaneously, and at 1 h, 22 h and day 4 when injected by tail vein. Optical imaging was performed through day 11 for the subcutaneous delivery of cells. The whole body radioactivity was measured through day 7 by placing the animal in a dose calibrator.
The lungs, liver, and spleen were removed from the mouse injected by tail vein when sacrificed on day 19, and the teratoma was removed from mouse injected subcutaneously on the left shoulder when sacrificed on day 15. Excised organs and teratoma were imaged on the Li-Cor Biosciences Pearl Imager, and then set in OCT for frozen sections. The frozen sections were stained with the general membrane fluorescent stain D275 (Invitrogen, Em: 484 nm, Ex: 501 nm) and detected on an Olympus IX 70 Inverted Light Microscope (Olympus America, Inc., NY) using a FITC filter for D275 and a Cy5 filter for MTTI-157. D275 is a cell membrane stain and was used here to stain the field of view. The frozen sections were also stained with hematoxylin-eosin (H&E) for standard microscopy.

[3] = SPECT/CT, whole body activity and optical imaging of ^111In-MTTI-157 labeled LS174T cells in SKH-1 mice
Protocol: ^111In-MTTI-157 labeled LS174T cells were administered to mice to follow their fate and that of the labels they carried. All animal experiments were approved by the Institutional Animal Care and Use Committee of the university. Male SKH-1 mice about 8 week-old (Charles River Laboratories, Inc., Wilmington, Mass.) were housed under standard conditions and fed white chow (AIN-93G Purified Diet, Harlan, Madison, Wis.). LS174T cells were prepared labeled with ^111In-MTTI-157 as above, and about 5×10^6 cells with 10-12 μCi was injected by tail vein per mouse.
as §1, with “The mice were followed by SPECT/CT imaging (NanoSPECT/CT, Bioscan, Inc., Washington, D.C.) with scans at 30 min, 1 h, 24 h, 72 h, 120 h and 168 h following injection. The SPECT” for “The SPECT”, “in 1.5 L/min oxygen. A” for “in 1.5 liters/min oxygen. A”
Optical images (Pearl Imager, LiCor Biosciences, Lincoln, Nebr.) were acquired on day 0 and at intervals through day 28. To facilitate detection of signal at depth, such as in the lungs, some animals were killed, the chest and abdomen opened to expose internal organs, and then imaged. Untreated mice served as control. After imaging, the lungs, liver and spleen were removed, imaged and then imbedded in OCT in preparation for frozen section fluorescence microscopy. Slides were counter stained with the general membrane stain D275 (Invitrogen). Slides were viewed in an Olympus IX 70 Inverted Light Microscope (Olympus America, Inc., NY) using filters for FITC (for D275) and Cy5 (for MTTI-157).

- whole body ^111In retention (decay corrected) ([3]; SKH-1 mice, labeled LS174T cells by tail vein): retention out thru Day 14
- loss of whole body activity (half-life corrected) ([3]; from day 0 to day 10, dose calibrator, SKH-1 mice): about 23%
- label stability in vivo ([3]; monitoring of cells out through 28 days in vivo): no evidence of label instability
SMILES: CCCCCCCCCCCCCCCCCCCCCCN1C(=CC=CC=CC2=[N+](CCCCCCCCCCCCCCCCCCCCCC)c3ccc(CNC(=O)CN4CCN(CC(=O)[O-])CCN(CC(=O)[O-])CCN(CC(=O)[O-])CC4)cc3C2(C)C)C(C)(C)c2ccccc21.[111In+3].[I-] [^111In-MTTI-157]
- distribution of radioactivity (SPECT/CT) ([1]; labeled TC1 mES cells injected by tail vein): accumulated in the lungs at 1 h after injection and then distributed to liver and spleen by 19 h
- distribution of radioactivity (SPECT/CT) ([1]; labeled TC1 mES cells injected subcutaneously on the left shoulder): retained in the shoulder and did not distribution to other tissue through 18 h
- whole body radioactivity corrected for decay ([1]; tail vein and subcutaneous injection of labeled TC1 mES cells, dose calibrator): retained in the body through day 9
- distribution of radioactivity (SPECT/CT) ([2]; labeled BL/6 mES cells by tail vein, NU/NU mice): accumulated in the lungs by 1 h following injection which then distributed to the liver and spleen by 22 h
- distribution of radioactivity (SPECT/CT) ([2]; labeled BL/6 mES cells subcutaneously on left shoulder, through day 4): retained in the shoulder without distribution to other tissue
- whole body radioactivity ([2]; labeled BL/6 mES cells, measured through day 7 in dose calibrator): unchanged from 2 h to 21 h after injection, but then decreases slightly at 91 h and remain at this level through 165 h
- distribution of radioactivity (SPECT/CT) ([3]; labeled LS174T cells by tail vein, SKH-1 mice, earliest scan 30 min and 1 h, then within a day): restricted to the lungs and then seen to redistribute within a day to the liver and spleen

Source: patent publication US10537650B2, “Molecular probes for multimodality imaging and tracking of stem cells” (University of Massachusetts, priority 2012, dated 2020)
